# Source: publication PMC3042952 (Nature structural & molecular biology, 2009)
# B1: full-length human tryptophanyl-tRNA synthetase (FL-TrpRS) (enzyme, UniProt P23381 1-471, looked up)
# chain: MPNSEPASLLELFNSIATQGELVRSLKAGNASKDEIDSAVKMLVSLKMSYKAAAGEDYKADCPPGNPAPTSNHGPDATEAEEDFVDPWTVQTSSAKGIDYDKLIVRFGSSKIDKELINRIERATGQRPHHFLRRGIFFSHRDMNQVLDAYENKKPFYLYTGRGPSSEAMHVGHLIPFIFTKWLQDVFNVPLVIQMTDDEKYLWKDLTLDQAYSYAVENAKDIIACGFDINKTFIFSDLDYMGMSSGFYKNVVKIQKHVTFNQVKGIFGFTDSDCIGKISFPAIQAAPSFSNSFPQIFRDRTDIQCLIPCAIDQDPYFRMTRDVAPRIGYPKPALLHSTFFPALQGAQTKMSASDPNSSIFLTDTAKQIKTKVNKHAFSGGRDTIEEHRQFGGNCDVDVSFMYLTFFLEDDDKLEQIRKDYTSGAMLTGELKKALIEVLQPLIAEHQARRKEVTDEIVKEFMTPRKLSFDFQ
# Assays:
# T2-TrpRS = molecular target: T1, T2-TrpRS (Homo sapiens, UniProt P23381); assay: isothermal titration calorimetry; type: binding
# T1 sequence (P23381 94-471): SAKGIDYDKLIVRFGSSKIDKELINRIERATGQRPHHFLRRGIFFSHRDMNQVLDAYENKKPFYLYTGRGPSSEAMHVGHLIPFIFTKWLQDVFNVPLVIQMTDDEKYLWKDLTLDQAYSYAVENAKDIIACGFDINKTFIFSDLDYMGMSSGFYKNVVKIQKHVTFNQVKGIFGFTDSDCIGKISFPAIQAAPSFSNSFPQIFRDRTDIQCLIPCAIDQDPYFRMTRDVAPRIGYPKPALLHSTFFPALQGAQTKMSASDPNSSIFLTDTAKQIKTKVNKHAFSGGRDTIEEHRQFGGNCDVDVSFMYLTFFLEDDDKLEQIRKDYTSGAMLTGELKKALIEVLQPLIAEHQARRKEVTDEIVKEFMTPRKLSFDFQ
# [1] = molecular target: T2, human VE-cadherin (extracellular portion)-Fc fusion, purified (human, UniProt P33151 48-599); assay: co-IP
# T2 sequence (looked up): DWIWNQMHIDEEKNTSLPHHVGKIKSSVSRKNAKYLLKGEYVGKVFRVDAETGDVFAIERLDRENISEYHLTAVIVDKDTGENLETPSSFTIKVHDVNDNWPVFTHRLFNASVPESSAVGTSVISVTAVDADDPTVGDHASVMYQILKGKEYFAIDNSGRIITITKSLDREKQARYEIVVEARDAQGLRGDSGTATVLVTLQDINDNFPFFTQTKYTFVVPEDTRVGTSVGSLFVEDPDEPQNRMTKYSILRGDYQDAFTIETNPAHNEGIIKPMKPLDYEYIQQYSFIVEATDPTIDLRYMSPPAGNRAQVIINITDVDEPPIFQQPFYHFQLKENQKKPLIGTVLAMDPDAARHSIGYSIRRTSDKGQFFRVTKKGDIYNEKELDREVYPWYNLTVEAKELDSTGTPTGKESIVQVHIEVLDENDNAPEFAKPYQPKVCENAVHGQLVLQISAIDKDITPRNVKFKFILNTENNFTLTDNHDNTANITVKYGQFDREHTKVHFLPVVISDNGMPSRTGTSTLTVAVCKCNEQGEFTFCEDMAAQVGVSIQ
Molecule,Kd (T2-TrpRS) [µM],amount bound relative to T2-TrpRS [1] [%]
N[C@@H](Cc1c[nH]c2ccccc12)C(=O)O [Trp],11,–
B1,–,~5
